Assay [1] has as its target TYK2 (Homo sapiens (Human), UniProt P29597). The assay is described as follows: JAK kinase assay (KINASE-GLO luminescent), TYK2 enzyme. The format is biochemical. Particulars: TYK2 enzyme 10 nM, Abl peptide substrate. The method, then: (§1) All compounds were initially prepared as 10 mM stocks in anhydrous dimethylsulfoxide (DMSO). […] Test compounds were then serially diluted 1:5 in DMSO for an 11-point concentration response and further diluted in the assay buffer bringing all compound concentrations to a final range of 100 μM to 10 μM in 2.5% DMSO. […] The reaction was initiated by the addition of 10 μL of 4× stock solution ATP (2 μM). Reactions were thoroughly mixed manually, covered, and allowed to incubate at room temperature for 75 min. Protein kinase activity was quantitated using Promega's KINASE-GLO™ luminescent Kinase Assay Kit according to the manufacturer's directions. ATP concentrations remaining in Test wells following the termination of the enzymatic reaction were compared against control wells containing equivalent amounts of DMSO containing no inhibitor (CTRL). […] Percent of Control (POC) values were determined for each concentration of compound tested according to the equation: […]
(§2) IC50 values were calculated using the following 4-parameter logistic curve-fitting algorithm:
(§3) Compounds were prepared in the exact same manner as described in the ROCK Kinase Assay with the exception to the substrate and enzyme. […] All other steps and solutions remain identical to the ROCK Kinase Assay above.
(In general: Kinase-Glo reads ATP consumption through a luciferase reaction.)

Assay [2] deals with JAK1 (Homo sapiens (Human), UniProt P23458). The assay is described as follows: JAK kinase assay (KINASE-GLO luminescent), JAK1 enzyme. The format is biochemical. Particulars: JAK1 enzyme 10 nM, Abl peptide substrate. The method, then: as §1, §2, §3
Chain of JAK1 (P23458 whole entry, species assumed): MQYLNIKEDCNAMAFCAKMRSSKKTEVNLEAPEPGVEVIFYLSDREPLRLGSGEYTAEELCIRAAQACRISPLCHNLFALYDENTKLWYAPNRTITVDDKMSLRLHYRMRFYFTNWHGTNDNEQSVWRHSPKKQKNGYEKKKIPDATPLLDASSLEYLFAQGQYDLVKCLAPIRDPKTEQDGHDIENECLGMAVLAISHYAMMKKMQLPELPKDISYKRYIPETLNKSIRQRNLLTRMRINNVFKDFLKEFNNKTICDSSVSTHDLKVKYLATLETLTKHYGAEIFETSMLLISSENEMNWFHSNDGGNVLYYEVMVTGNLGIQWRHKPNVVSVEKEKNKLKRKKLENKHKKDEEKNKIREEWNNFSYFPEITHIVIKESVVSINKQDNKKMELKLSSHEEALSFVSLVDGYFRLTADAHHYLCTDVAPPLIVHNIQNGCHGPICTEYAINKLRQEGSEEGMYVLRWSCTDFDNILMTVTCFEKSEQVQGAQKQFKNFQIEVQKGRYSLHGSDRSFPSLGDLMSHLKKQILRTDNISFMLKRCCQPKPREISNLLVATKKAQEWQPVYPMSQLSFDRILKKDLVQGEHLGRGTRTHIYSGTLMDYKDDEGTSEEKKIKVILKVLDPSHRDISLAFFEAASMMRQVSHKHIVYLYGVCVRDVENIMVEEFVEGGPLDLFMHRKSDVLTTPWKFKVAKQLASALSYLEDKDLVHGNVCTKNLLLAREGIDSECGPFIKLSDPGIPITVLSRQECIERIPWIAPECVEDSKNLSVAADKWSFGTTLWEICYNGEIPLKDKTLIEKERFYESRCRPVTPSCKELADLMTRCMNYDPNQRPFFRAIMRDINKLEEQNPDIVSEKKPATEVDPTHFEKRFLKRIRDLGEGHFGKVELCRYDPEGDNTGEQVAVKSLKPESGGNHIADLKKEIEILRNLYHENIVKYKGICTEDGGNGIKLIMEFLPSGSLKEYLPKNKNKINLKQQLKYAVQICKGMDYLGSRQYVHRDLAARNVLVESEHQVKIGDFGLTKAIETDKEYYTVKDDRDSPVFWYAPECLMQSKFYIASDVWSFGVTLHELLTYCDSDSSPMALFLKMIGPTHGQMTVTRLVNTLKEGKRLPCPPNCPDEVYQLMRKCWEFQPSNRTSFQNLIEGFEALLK

Among the data in US20240425496A1, “AZETIDINYL PYRIMIDINES AND USES THEREOF” (Aerie Pharmaceuticals, Inc., priority 2021, published 2024) are IC50 values, retold here.

Where only a bound is given, the exact number is not on record here.

Chain of TYK2 (P29597 whole entry, species assumed): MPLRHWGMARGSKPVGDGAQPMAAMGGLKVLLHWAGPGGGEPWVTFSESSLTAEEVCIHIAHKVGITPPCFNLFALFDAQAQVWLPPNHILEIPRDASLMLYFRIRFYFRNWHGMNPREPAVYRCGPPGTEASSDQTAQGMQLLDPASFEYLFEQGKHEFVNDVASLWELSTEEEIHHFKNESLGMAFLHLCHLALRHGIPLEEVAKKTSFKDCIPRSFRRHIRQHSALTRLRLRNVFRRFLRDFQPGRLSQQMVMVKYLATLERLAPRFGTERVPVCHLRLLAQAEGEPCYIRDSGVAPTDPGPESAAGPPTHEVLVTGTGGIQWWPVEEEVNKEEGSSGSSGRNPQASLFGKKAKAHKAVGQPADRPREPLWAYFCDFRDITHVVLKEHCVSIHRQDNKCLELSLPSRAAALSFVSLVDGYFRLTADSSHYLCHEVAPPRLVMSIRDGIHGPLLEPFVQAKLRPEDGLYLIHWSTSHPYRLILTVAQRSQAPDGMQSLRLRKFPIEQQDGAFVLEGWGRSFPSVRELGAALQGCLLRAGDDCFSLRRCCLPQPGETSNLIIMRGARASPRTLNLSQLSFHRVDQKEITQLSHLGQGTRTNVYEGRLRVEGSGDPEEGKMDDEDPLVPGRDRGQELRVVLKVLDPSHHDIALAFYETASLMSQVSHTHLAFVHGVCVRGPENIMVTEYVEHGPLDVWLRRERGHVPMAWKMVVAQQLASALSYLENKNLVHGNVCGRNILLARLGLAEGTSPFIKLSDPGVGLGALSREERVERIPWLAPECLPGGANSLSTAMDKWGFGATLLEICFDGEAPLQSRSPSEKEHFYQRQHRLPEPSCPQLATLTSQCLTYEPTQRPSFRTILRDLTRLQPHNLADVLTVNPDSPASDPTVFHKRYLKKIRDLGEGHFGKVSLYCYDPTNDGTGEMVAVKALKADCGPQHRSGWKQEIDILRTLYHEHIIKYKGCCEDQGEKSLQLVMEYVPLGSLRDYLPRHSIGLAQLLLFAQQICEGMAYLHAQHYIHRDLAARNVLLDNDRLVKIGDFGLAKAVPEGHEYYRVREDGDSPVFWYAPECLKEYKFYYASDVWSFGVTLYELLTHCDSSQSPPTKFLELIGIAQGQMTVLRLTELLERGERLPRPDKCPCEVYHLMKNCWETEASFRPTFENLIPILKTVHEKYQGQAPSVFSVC

Turning to `Cc1cc(Nc2ncc(C)c(N3CC(CC#N)(N4CCN(C)CC4)C3)n2)sn1` [E5, 2-(1-(5-methyl-2-((3-methylisothiazol-5-yl)amino)pyrimidin-4-yl)-3-(4-methyl-piperazin-1-yl)azetidin-3-yl)acetonitrile], the IC50 (commonly the midpoint of a concentration-inhibition curve) in assay [1] is less than 10 nM.
Regarding `Cc1cc(Nc2ncc(C)c(N3CC(CC#N)C3)n2)sn1` [E6], the IC50 in assay [1] was less than 10 nM.
In the case of `Cc1cc(Nc2ncc(C)c(N3CC(CC#N)(N4CCOCC4)C3)n2)sn1` [E9], the IC50 in assay [1] and in assay [2] was less than 10 nM each time.
The compound `Cc1cc(Nc2ncc(C)c(N3CC(CC#N)(N4CCCCC4)C3)n2)sn1` [E10] registered an IC50 in assay [2] of less than 10 nM.
As to `Cc1cc(Nc2ncc(C)c(N3CC(CC#N)(N4CC(C5CC5)C4)C3)n2)sn1` [E11], the IC50 in assay [1] and in assay [2] was less than 10 nM each time.
As for `Cc1cc(Nc2ncc(C)c(N3CC(CC#N)(N4CCC4)C3)n2)sn1` [E12], the IC50 in assay [1] and in assay [2] was less than 10 nM throughout.
In the case of `Cc1cc(Nc2ncc(C)c(N3CC(CC#N)(N(C)C4CC4)C3)n2)sn1` [E13], the 50% inhibitory concentration (IC50) in assay [1] and in assay [2] was less than 10 nM throughout.
On to `Cc1cc(Nc2ncc(C)c(N3CC(CC#N)(N4CCC(CCF)CC4)C3)n2)sn1` [E14], for which the IC50 in assay [1] and in assay [2] was less than 10 nM throughout.
As to `Cc1cc(Nc2ncc(C)c(N3CC(CC#N)(N4CCCC(C)C4)C3)n2)sn1` (stereo not shown) [E15], the IC50 in assay [1] and in assay [2] was less than 10 nM each time.
As for `Cc1cc(Nc2ncc(C)c(N3CC(CC#N)(N4CC(C)CC(C)C4)C3)n2)sn1` (stereo not shown) [E16], the IC50 in assay [1] and in assay [2] was less than 5 nM in each case.
As to `Cc1cc(Nc2ncc(C)c(N3CC(CC#N)(N4CCC(F)CC4)C3)n2)sn1` [E17], the IC50 in assay [1] and in assay [2] was less than 10 nM throughout.
As to `Cc1cnc(Nc2cc(C3CC3)ns2)nc1N1CC(CC#N)(N2CCN(C)CC2)C1` [E18], the IC50 in assay [1] and in assay [2] was less than 5 nM in each case.
Consider `Cc1cc(Nc2ncc(C)c(N3CC(CC#N)(N4CC5CC(C5)C4)C3)n2)sn1` [E19], for which the half-maximal inhibitory concentration (IC50) in assay [1] and in assay [2] was less than 10 nM in each case.
Turning to `Cc1cc(Nc2ncc(C)c(N3CC(CC#N)(N4CCC(CC(F)F)CC4)C3)n2)sn1` [E20], the IC50 in assay [1] and in assay [2] was less than 10 nM throughout.
As to `Cc1cc(Nc2ncc(C)c(N3CC(CC#N)(N4CCCC5(CC5)C4)C3)n2)sn1` [E21], the IC50 in assay [1] and in assay [2] was less than 10 nM in each case.
Regarding `Cc1cc(Nc2ncc(C)c(N3CC(CC#N)(N4CCC5(CC4)CC5(F)F)C3)n2)sn1` [E22], the half-maximal inhibitory concentration (IC50) in assay [1] and in assay [2] was less than 10 nM throughout.
`Cc1cc(Nc2ncc(C)c(N3CC(CC#N)(N4CC(C)CC5(CC5)C4)C3)n2)sn1` (stereo not shown) [E23]: the concentration for half-maximal inhibition (IC50) in assay [1] and in assay [2] was less than 10 nM each time.
Consider `COc1cnc(Nc2cc(C)ns2)nc1N1CC(CC#N)(N2CCCCC2)C1` [E24], for which the IC50 in assay [1] and in assay [2] was less than 50 nM each time.
`Cc1cc(Nc2ncc(Cl)c(N3CC(CC#N)(N4CCCCC4)C3)n2)sn1` [E25]: the IC50 in assay [1] and in assay [2] was less than 10 nM each time.
For the compound `Cc1cc(Nc2ncc(C)c(N3CC(CC#N)(N4CCC5(CC4)COC5)C3)n2)sn1` [E26], the IC50 in assay [1] and in assay [2] was less than 10 nM each time.
Regarding `Cc1cc(Nc2ncc(C)c(N3CC(CC#N)(N4CCCC5(C4)CC5(F)F)C3)n2)sn1` (stereo not shown) [E27], the IC50 in assay [1] and in assay [2] was less than 10 nM in each case.
With `Cc1cc(Nc2ncc(C)c(N3CC(CC#N)(N4CCC5(CC4)CN(C)C5)C3)n2)sn1` [E28], the IC50 in assay [1] and in assay [2] was less than 50 nM throughout.
As for `Cc1cc(Nc2ncc(C)c(N3CC(CC#N)(N4CC5C(C4)C5(F)F)C3)n2)sn1` (stereo not shown) [E29], the IC50 in assay [1] and in assay [2] was less than 10 nM throughout.
For `Cc1cc(Nc2ncc(C)c(N3CC(CC#N)(N4CC5CCC(C4)N5C)C3)n2)sn1` [E30], the IC50 was less than 10 nM in assay [1] and less than 50 nM in assay [2].
Regarding `Cc1cc(Nc2ncc(C)c(N3CC(CC#N)(N4CC5CC(C4)C5(F)F)C3)n2)sn1` [E31], the IC50 in assay [1] and in assay [2] was less than 10 nM in each case.
Turning to `Cc1cc(Nc2ncc(C3CC3)c(N3CC(CC#N)(N4CCCCC4)C3)n2)sn1` [E32], the IC50 in assay [1] is less than 10 nM; in assay [2], less than 50 nM.
For `Cc1cc(Nc2ncc(C)c(N3CC(CC#N)(N4CCCCCC4)C3)n2)sn1` [E33] the same measures were less than 10 nM and less than 10 nM.
For `Cc1cc(Nc2ncc(C)c(N3CC(CC#N)(N4C[C@@H](C)N(C)[C@@H](C)C4)C3)n2)sn1` [E34] the same measures were less than 10 nM and less than 50 nM.
Regarding `Cc1cc(Nc2ncc(C)c(N3CC(CC#N)(N4C[C@@H](C)N(C)[C@H](C)C4)C3)n2)sn1` [E35], the IC50 was less than 10 nM in assay [1] and less than 50 nM in assay [2].
For `Cc1cc(Nc2ncc(C)c(N3CC(CC#N)(N4CCN(C)C(C)C4)C3)n2)sn1` (stereo not shown) [E36], the IC50 in assay [1] and in assay [2] was less than 10 nM each time.
Regarding `Cc1cc(Nc2ncc(C)c(N3CC(CC#N)(N(C)C4CN(C)C4)C3)n2)sn1` [E37], the IC50 in assay [1] and in assay [2] was less than 50 nM in each case.
Regarding `Cc1cc(Nc2ncc(C)c(N3CC(CC#N)(N4CCN(C)C5(CC5)C4)C3)n2)sn1` [E38], the half-maximal inhibitory concentration (IC50) in assay [1] and in assay [2] was less than 10 nM each time.
For the compound `Cc1cc(Nc2ncc(C)c(N3CC(CC#N)(N4CCC5(CC4)CC5)C3)n2)sn1` [E39], the half-maximal inhibitory concentration (IC50) in assay [1] and in assay [2] was less than 10 nM in each case.
With `Cc1cc(Nc2ncc(C)c(N3CC(CC#N)(N4CCC(C5CC5(F)F)CC4)C3)n2)sn1` (stereo not shown) [E40], the IC50 in assay [1] and in assay [2] was less than 10 nM each time.
`Cc1cc(Nc2ncc(C)c(N3CC(CC#N)(N4CCCC5(COC5)C4)C3)n2)sn1` [E41]: the IC50 in assay [1] and in assay [2] was less than 10 nM each time.
Consider `Cc1cc(Nc2ncc(C)c(N3CC(CC#N)(N4CC5(CN(C)C5)C4)C3)n2)sn1` [E42], for which the IC50 in assay [1] and in assay [2] was less than 1000 nM in each case.
As to `Cc1cc(Nc2ncc(C)c(N3CC(CC#N)(N4CC(N(C)C)C4)C3)n2)sn1` [E43], the IC50 in assay [1] is less than 100 nM; in assay [2], less than 150 nM.
For `Cc1cc(Nc2ncc(C)c(N3CC(CC#N)(N4C[C@H](C)N(C)[C@@H](C)C4)C3)n2)sn1` [E44] the same measures were less than 20 nM and less than 50 nM.
For `Cc1cc(Nc2nccc(N3CC(CC#N)(N4CCCCC4)C3)n2)sn1` [E45] the same measures were less than 20 nM and less than 200 nM.
For `Cc1cc(Nc2ncc(C)c(N3CC(CC#N)(N4CCN(C)C5(COC5)C4)C3)n2)sn1` [E46] the same measures were less than 10 nM and less than 20 nM.
`Cc1cc(Nc2ncc(C)c(N3CC(CC#N)(N4CCC(CS(C)(=O)=O)CC4)C3)n2)sn1` [E47]: the IC50 in assay [1] and in assay [2] was less than 10 nM throughout.
On to `Cc1cc(Nc2ncc(C)c(N3CC(CC#N)(N4CCN(CC5CC5)CC4)C3)n2)sn1` [E48], for which the IC50 in assay [1] and in assay [2] was less than 10 nM each time.
Consider `Cc1cc(Nc2ncc(C)c(N3CC(CC#N)(N4C5CCCC4C5)C3)n2)sn1` [E49], for which the IC50 is less than 20 nM in assay [1] and less than 30 nM in assay [2].
For `Cc1cc(Nc2ncc(C)c(N3CC(CC#N)(N4C5CC4CN(C)C5)C3)n2)sn1` [E50] the same measures were less than 400 nM and less than 250 nM.
Take `Cc1cc(Nc2ncc(C)c(N3CC(CC#N)(N4CCN(CC(C)C)CC4)C3)n2)sn1` [E51]: the 50% inhibitory concentration (IC50) was less than 20 nM in assay [1] and less than 15 nM in assay [2].
For `Cc1cc(Nc2ncc(C)c(N3CC(CC#N)(N4CCN(C)[C@@H](C)C4)C3)n2)sn1` [E52A] the same measures were less than 10 nM and less than 20 nM.
For `Cc1cc(Nc2ncc(C)c(N3CC(CC#N)(N4CCN5C[C@@H](F)C[C@H]5C4)C3)n2)sn1` [E52B] the same measures were less than 10 nM and less than 10 nM.
For `Cc1cc(Nc2ncc(C)c(N3CC(CC#N)(N4CCN(CC(C)(C)F)CC4)C3)n2)sn1` [E52D] the same measures were less than 20 nM and less than 10 nM.
In the case of `Cc1cc(Nc2ncc(C)c(N3CC(CC#N)(N4CCC5C(CC4)C5(F)F)C3)n2)sn1` (stereo not shown) [E52E], the IC50 in assay [1] and in assay [2] was less than 10 nM each time.
Regarding `Cc1cc(Nc2ncc(C)c(N3CC(CC#N)(N4CC5CC(C4)N5C)C3)n2)sn1` [E52F], the IC50 in assay [1] is less than 50 nM; in assay [2], less than 100 nM.
As to `Cc1cc(Nc2ncc(C)c(N3CC(CC#N)(N4CCCN(C)CC4)C3)n2)sn1` [E52G], the values for the half-inhibitory concentration (IC50) in assay [1] and in assay [2] were less than 50 nM and less than 100 nM, respectively.
On to `Cc1cc(Nc2ncc(C)c(N3CC(CC#N)(NC4CN(C)C4)C3)n2)sn1` [E52H], for which the half-maximal inhibitory concentration (IC50) in assay [1] and in assay [2] was less than 100 nM each time.
As for `CCN1CCN(C2(CC#N)CN(c3nc(Nc4cc(C)ns4)ncc3C)C2)CC1` [E52], the IC50 in assay [1] and in assay [2] was less than 10 nM throughout.
Take `Cc1cc(Nc2ncc(C)c(N3CC(CC#N)(N4CCN(C5CC5)CC4)C3)n2)sn1` [E54]: the IC50 in assay [1] and in assay [2] was less than 10 nM in each case.
As for `Cc1cc(Nc2ncc(C)c(N3CC(CC#N)(N4CCN(C(C)C)CC4)C3)n2)sn1` [E55], the half-maximal inhibitory concentration (IC50) in assay [1] and in assay [2] was less than 50 nM each time.
As to `Cc1cc(Nc2ncc(C)c(N3CC(CC#N)(N4CCN(CCF)CC4)C3)n2)sn1` [E55a], the IC50 in assay [1] and in assay [2] was less than 10 nM each time.
